# Several values for one entry are separate records, joined by “and”; a condition that tells them apart may be missing. Equal entries are not always repeated. Activity calls are given as the source filed them.
# How the values were obtained:
# [1] = biological target: Cytochrome P450 2C19 (Homo sapiens, UniProt P33261); test: Cytochrome panel assay with activity outcomes. Panel member name: p450-cyp2c19 Compounds with AC50 equal or less than 10 uM are considered active; format: functional
# [2] = biological target: Cytochrome P450 3A4 (Homo sapiens, UniProt P08684);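 further: CYP3A4 tested as one member of a cytochrome P450 panel screen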
# Cytochrome P450 3A4, sequence (P08684 whole entry): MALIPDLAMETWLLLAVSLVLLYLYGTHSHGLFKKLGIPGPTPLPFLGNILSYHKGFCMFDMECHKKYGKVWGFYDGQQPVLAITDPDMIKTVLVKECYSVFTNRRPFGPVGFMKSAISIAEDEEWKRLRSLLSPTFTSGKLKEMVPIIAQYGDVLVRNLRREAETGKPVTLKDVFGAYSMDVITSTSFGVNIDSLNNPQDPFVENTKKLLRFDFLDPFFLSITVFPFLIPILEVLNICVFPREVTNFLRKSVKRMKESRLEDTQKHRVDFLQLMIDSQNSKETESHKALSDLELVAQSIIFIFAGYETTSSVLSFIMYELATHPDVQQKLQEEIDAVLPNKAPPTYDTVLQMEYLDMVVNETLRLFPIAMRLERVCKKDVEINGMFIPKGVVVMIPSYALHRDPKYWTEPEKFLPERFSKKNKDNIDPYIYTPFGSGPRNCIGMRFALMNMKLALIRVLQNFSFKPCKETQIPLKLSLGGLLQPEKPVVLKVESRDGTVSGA
# [3] = NIH3T3 cell viability loss – ATP luminescence, mouse fibroblasts, counter-screen, dose response (AID 2010); format: functional, cell-based;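 further: cells exposed to compound for about 90 hours before reading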
# [4] = Trypanosoma cruzi growth suppression in host cells – NIH3T3 host cells, beta-gal luminescence, confirmation (AID 2044); format: functional, cell-based;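 further: intracellular parasites grown in NIH/3T3 mouse fibroblasts as host cells; luminescent beta-galactosidase reporter signal from transgenic T. cruzi replicating inside host cells; inhibitors lower the luminescence signal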
# [5] = biological target: Cytochrome P450 2C9 (Homo sapiens, UniProt P11712)
# Cytochrome P450 2C9, sequence (P11712 whole entry): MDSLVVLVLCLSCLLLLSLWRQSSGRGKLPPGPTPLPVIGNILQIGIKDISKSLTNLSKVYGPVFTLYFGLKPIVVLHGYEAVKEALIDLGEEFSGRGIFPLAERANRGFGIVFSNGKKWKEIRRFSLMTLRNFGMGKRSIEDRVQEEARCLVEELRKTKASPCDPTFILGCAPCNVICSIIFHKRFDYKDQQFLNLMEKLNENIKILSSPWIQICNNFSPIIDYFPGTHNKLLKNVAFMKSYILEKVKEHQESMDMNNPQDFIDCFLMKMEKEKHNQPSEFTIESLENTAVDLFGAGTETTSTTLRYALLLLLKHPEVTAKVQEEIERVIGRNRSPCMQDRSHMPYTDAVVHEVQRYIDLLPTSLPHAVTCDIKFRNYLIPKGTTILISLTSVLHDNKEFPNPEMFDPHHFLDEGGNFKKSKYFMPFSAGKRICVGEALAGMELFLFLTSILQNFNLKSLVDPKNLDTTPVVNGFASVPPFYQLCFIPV
# [6] = Luminescence Cell-Based Dose Retest to Confirm Inhibitors of Cancer Stem Cells. [Related pubchem assays (depositor defined):AID2717, AID2721]; format: functional; settings: Homo sapiens
# [7] = biological target: T1, Cytochrome P450 1A2 (Homo sapiens, UniProt P05177)
# T1 sequence (P05177 whole entry): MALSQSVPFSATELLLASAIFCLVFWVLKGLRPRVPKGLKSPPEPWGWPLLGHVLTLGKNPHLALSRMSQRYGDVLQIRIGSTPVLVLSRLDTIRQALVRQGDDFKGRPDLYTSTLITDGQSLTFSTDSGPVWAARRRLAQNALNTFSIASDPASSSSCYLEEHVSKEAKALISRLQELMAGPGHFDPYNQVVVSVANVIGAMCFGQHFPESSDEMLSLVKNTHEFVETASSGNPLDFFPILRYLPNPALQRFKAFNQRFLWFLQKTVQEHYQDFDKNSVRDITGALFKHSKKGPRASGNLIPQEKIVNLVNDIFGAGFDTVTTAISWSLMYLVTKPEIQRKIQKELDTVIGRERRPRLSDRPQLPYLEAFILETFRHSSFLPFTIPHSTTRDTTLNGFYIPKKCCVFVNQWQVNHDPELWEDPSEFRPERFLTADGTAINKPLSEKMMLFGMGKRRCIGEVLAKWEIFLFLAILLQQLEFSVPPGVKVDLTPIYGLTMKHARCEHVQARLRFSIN
# [8] = test system: Streptococcus; test: GAS UMAA2166 growth inhibition – luminescence, BacTiterGlo, counter-screen for streptokinase expression inhibitor project, dose response (AID 1915); format: functional, organism-based;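 further: potency for reduction of bacterial viability or growth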
# [9] = test system: Streptococcus sp. 'group A'; test: Streptococcus pyogenes SK(-)GAS viability under kanamycin – luminescence, BacTiterGlo, confirmation, counter-screen for streptokinase expression inhibitor project, dose response (AID 1900); format: functional, organism-based
# Cytochrome P450 2C19, sequence (P33261 whole entry): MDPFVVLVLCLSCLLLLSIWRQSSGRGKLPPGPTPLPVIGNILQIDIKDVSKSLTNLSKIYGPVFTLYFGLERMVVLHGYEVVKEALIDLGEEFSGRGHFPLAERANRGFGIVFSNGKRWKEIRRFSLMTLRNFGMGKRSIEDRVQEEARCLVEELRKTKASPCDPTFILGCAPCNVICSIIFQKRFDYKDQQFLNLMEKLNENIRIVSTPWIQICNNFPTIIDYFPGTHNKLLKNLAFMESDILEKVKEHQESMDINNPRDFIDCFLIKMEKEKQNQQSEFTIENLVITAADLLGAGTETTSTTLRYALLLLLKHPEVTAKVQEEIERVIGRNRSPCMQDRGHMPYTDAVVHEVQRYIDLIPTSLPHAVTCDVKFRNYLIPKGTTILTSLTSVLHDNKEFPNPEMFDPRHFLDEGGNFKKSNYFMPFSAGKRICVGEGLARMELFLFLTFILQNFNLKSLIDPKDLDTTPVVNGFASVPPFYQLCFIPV
smiles,measurement,setting,value
N#CCCn1c(=O)cnc2cnc(N3CCOCC3)nc21,AC50,[1],inconclusive
CCn1c2ccccc2c2cc(/N=C3/SC(CC(=O)Nc4ccccc4OC)C(=O)N3C)ccc21 (stereo unspecified),AC50,[2],2.82 µM (inconclusive)
CO[C@@H]1COC(=O)C/C=C\[C@@H](C)[C@H](OC)COC(=O)[C@H](COCc2ccccc2)NC(=O)C/C=C\[C@H]1C,AC50,[2],5.01 µM (inconclusive)
same,AC50,[1]; read-out: AC50,2 µM (inconclusive)
Fc1ccc(CSc2nnc(-c3cc4c(s3)-c3ccccc3CC4)o2)cc1,AC50,[2],15.8 µM (inconclusive)
same,AC50,[1],inconclusive
O=C(NC1CCN(Cc2ccccc2)CC1)c1ccc(Cn2c(=S)[nH]c3ccc(N4CCOCC4)cc3c2=O)cc1,EC50,[3],10.4 µM (active)
same,EC50,[4],1.3 µM (active)
COC(=O)CSc1ccc(C#N)c(SCC(=O)OC)c1,AC50,[5],20 µM (inconclusive)
COc1cccc(-c2sc3ccc(OC)cc3c2-c2ccc(O)cc2)c1,AC50,[6],2.67 µM (active)
Cc1cc(C)n(C(=O)c2cc3c(s2)CCCC3)n1,AC50,[2],39.8 µM (inconclusive)
same,AC50,[1]; read-out: AC50,2.24 µM (inconclusive)
Cc1ccc(CNC(=O)[C@H]2C[C@@H]2[C@H](NP(=O)(c2ccccc2)c2ccccc2)c2ccccc2)c(F)c1F,AC50,[1]; read-out: AC50,0.0398 µM (inconclusive)
CCn1c(C)nc2cc(C(=O)NNS(=O)(=O)c3ccccc3F)ccc21,AC50,[5],20 µM (inconclusive)
O=C(CCN1CCc2ccccc2C1)Nc1ccc(F)cc1,AC50,[7],0.398 µM (inconclusive)
same,AC50,[2],15.8 µM (inconclusive)
Cc1c(-c2cccc(Cl)c2)nc2ccccc2c1C(=O)OC/C(O)=C(\C#N)c1nc2ccccc2[nH]1,EC50,[8],2.6 µM (active)
same,EC50,[9],2.23 µM (active)
same,AC50,[6],1.75 µM (active)
Cc1nn(C(=O)c2ccco2)c(C)c1Sc1ccccc1,AC50,[5],2.24 µM (inconclusive)
same,AC50,[2],39.8 µM (inconclusive)
CCOC(=O)c1[nH]c(C)c(C)c1C,AC50,[5],1.12 µM (inconclusive)
same,AC50,[1]; read-out: AC50,17.8 µM (inconclusive)
Cc1ccc(C2C(=O)N(C3CCCC3)CC(=O)N2CC2COc3ccccc3O2)cc1 (stereo unspecified),AC50,[7],39.8 µM (inconclusive)
Cc1nonc1NCn1nnc2ccccc21,AC50,[7],8.91 µM (inconclusive)
same,AC50,[5],5.01 µM (inconclusive)
same,AC50,[1]; read-out: AC50,14.1 µM (inconclusive)
COc1ccccc1-c1nc(N2CCN(C)CC2)c2ccccc2n1,AC50,[2],31.6 µM (inconclusive)
CC(=O)Nc1ccc(OCC(O)Cn2c3ccccc3c3ccccc32)c(C)c1 (stereo unspecified),EC50,[3],9.57 µM (active)
same,EC50,[4],2.11 µM (active)
COc1cccc(Nc2nc(N)nc(CCl)n2)c1,EC50,[3],4.11 µM (active)
same,EC50,[4],1.7 µM (active)
O=C(c1ccc(C#CC2(O)CCCCC2)cc1)N1CCN(C(c2ccccc2)c2ccccc2)CC1,AC50,[6],0.482 µM (active)
CCCc1[nH]c2ccc(C#N)cc2c1CCC,AC50,[6],4.21 µM (active)
N#CCCn1c(=O)cnc2cnc(OCc3ccccc3)nc21,AC50,[1],inconclusive
CCOC(=O)c1c(NC(=O)Nc2ccccc2)sc(C)c1C,AC50,[2],25.1 µM (inconclusive)
CC12CN3CC(C)(CN(C1)C3c1ccc([N+](=O)[O-])o1)C2=O (stereo unspecified),EC50,[3],> 60 µM (not active)
same,EC50,[4],0.784 µM (active)
N#Cc1cccc(-c2ccc3ncnc(NC4CCNCC4)c3c2)c1,AC50,[1]; read-out: AC50,25.1 µM (inconclusive)
CN(C)CCCN(C(=O)COc1ccc(Cl)cc1)c1nc2c(F)cccc2s1,EC50,[3],> 60 µM (inconclusive)
same,EC50,[4],0.128 µM (active)
COc1ccccc1-c1nc(NCc2ccccc2)c2ccccc2n1,AC50,[1]; read-out: AC50,25.1 µM (inconclusive)
COc1cccc(Cn2c(=O)c(-c3ccccc3)nc3cnc(N4CCN(C)CC4)nc32)c1,AC50,[2],31.6 µM (inconclusive)
CN1C(=O)C(C2c3ccccc3C(=O)N2Cc2ccc([N+](=O)[O-])cc2)C(=O)N(C)C1=O (stereo unspecified),AC50,[1]; read-out: AC50,14.1 µM (inconclusive)
COC(=O)c1c(-c2cc(OC)c(OC)c(OC)c2)c2ccc(OCc3ccccn3)cc2c(=O)n1-c1ccc(N)cc1,AC50,[1]; read-out: AC50,10 µM (inconclusive)
CCCCCCCCCCCCN1[C@@H](CC(C)=O)c2cc(F)ccc2S1(=O)=O,AC50,[6],5.3 µM (active)
Cc1cc(C)cc(Oc2nn[nH]n2)c1,AC50,[5],7.08 µM (inconclusive)
CCN1CCN(c2ccc(S(=O)(=O)N3CCCCC3)cc2NC(=O)c2cc3ccccc3o2)CC1,EC50,[3],> 30 µM (not active)
same,EC50,[4],0.31 µM (active)
O=C(NCC1CCCC(CNC(=O)Nc2ccc(Cl)cn2)C1)Nc1ccc(Cl)cn1 (stereo unspecified),EC50,[3],> 60 µM (not active)
same,EC50,[4],1.18 µM (active)
COC(=O)N1CC(=O)N(OC)C1c1ccc(Cl)cc1Cl (stereo unspecified),AC50,[5],0.316 µM (inconclusive)
COc1ccccc1CN1CCCC2(CCN(C(=O)c3cccn3C)CC2)C1,AC50,[2],20 µM (inconclusive)
CCOc1nc(NC(C)C)nc(NC(C)C)n1,AC50,[7],5.01 µM (inconclusive)
CC1(C)CCCN(C(=O)N2c3ccccc3Sc3ccccc32)C1,AC50,[5],15.8 µM (inconclusive)
O=C(CCN1C(=O)C2C3C=CC(C3)C2C1=O)Nc1c(F)cccc1F (stereo unspecified),AC50,[1]; read-out: AC50,39.8 µM (inconclusive)
CC(C)(C)NC[C@@H](O)COc1cccc2[nH]c(C#N)cc12,AC50,[7],31.6 µM (inconclusive)
COc1ccc(NS(=O)(=O)c2cccc(C(=O)NC3CCN(Cc4ccccc4)CC3)c2)cc1,EC50,[3],> 30 µM (not active)
same,EC50,[4],0.318 µM (active)
C=CCNc1nc(Cl)nc(Nc2ccc(OC)cc2)n1,AC50,[1]; read-out: AC50,0.224 µM (inconclusive)
O=c1c(-c2cc(F)cc(F)c2)nc2cncnc2n1-c1ccccc1,AC50,[5],10 µM (inconclusive)
same,AC50,[1]; read-out: AC50,6.31 µM (inconclusive)
CN(C)CCCN1c2ccccc2Sc2cnccc21,AC50,[7],0.501 µM (inconclusive)
COc1ccc(C)cc1NC(=O)c1ccc([N+](=O)[O-])cc1[N+](=O)[O-],EC50,[3],> 60 µM (not active)
same,EC50,[4],1.18 µM (active)
CCOCCCNCc1ccc(OCCC(C)C)c(OC)c1,EC50,[3],> 60 µM (not active)
same,EC50,[4],0.17 µM (active)
N[C@@H](Cn1oc(=O)[nH]c1=O)C(=O)O [QUISQUALATE],AC50,[7],39.8 µM (inconclusive)
same,AC50,[2],1 µM (inconclusive)
CN1CCN(c2nc(-c3ccoc3)nc3ccccc23)CC1,AC50,[2],20 µM (inconclusive)
COc1ccccc1N1CCN(C[C@@H](O)COc2cccc3ccccc23)CC1,AC50,[7],12.6 µM (inconclusive) and 31.6 µM (inconclusive) and 20 µM (inconclusive)
CCCc1nnc(NC(=O)C(CC)OC(=O)c2cc(C)nc3ccccc23)s1 (stereo unspecified),AC50,[7],15.8 µM (inconclusive)
same,AC50,[1]; read-out: AC50,15.8 µM (inconclusive)
CCc1c(C2(O)CCCCC2)[nH]c2c(C(=O)OC)cc(Cl)cc12,EC50,[8],5.96 µM (active)
same,EC50,[9],2.62 µM (active)
same,AC50,[6],1.89 µM (active)
CN(C)CCCNC(=O)CCc1nc(O)c2ccccc2n1,AC50,[5],1 µM (inconclusive)
same,AC50,[1]; read-out: AC50,7.08 µM (inconclusive)
CCn1c(-c2ccccc2)cnc1S,EC50,[8],> 150 µM (not active)
same,EC50,[9],> 150 µM (not active)
Cc1cccc(OC(=O)CN2C(=O)C3C4CCC(C4)C3C2=O)c1C (stereo unspecified),AC50,[5],2 µM (inconclusive)
c1ccc(CNc2ncncc2-c2ccoc2)cc1,AC50,[5],0.501 µM (inconclusive)
CN(C)CCCN(C(=O)/C=C/c1cccs1)c1nc2c(F)cccc2s1,EC50,[3],> 60 µM (not active)
same,EC50,[4],1.86 µM (active)
COc1ccc(C(CCN)Cc2ccccc2)cc1 (stereo unspecified),EC50,[3],> 30 µM (not active)
CN1CCN(c2ncncc2-c2ccccc2Cl)CC1,AC50,[7],2.51 µM (inconclusive)
Cc1cc(NC(=O)CCC(=O)N(CC2CCCO2)C(C(=O)NC2CCCC2)c2cccnc2)no1 (stereo unspecified),AC50,[5],17.8 µM (inconclusive)
same,AC50,[2],1.41 µM (inconclusive)
Cc1cccc(-n2cc(CN(C)Cc3nccn3C)c(-c3cccc(F)c3)n2)c1,AC50,[6],13.5 µM (active)
same,EC50,[3],11.8 µM (active)
same,EC50,[4],1.79 µM (active)
COc1cc(OC)cc(-c2sc3ccc(OC)cc3c2C#CCCO)c1,AC50,[6],4 µM (active)
Cc1ccc2c(c1)-c1c(cnn1CC(=O)O)CO2,AC50,[7],0.794 µM (inconclusive)
same,AC50,[5],11.2 µM (inconclusive)
Cc1cc(C)c(S(=O)(=O)NCC2CCC(C(=O)NCc3ccc4c(c3)OCO4)CC2)c(C)c1 (stereo unspecified),AC50,[7],17.8 µM (inconclusive)
COc1ccc(-n2c(=O)c(CCc3ccccc3)nc3cnc(N(C)C)nc32)cc1,AC50,[7],3.16 µM (inconclusive)
same,AC50,[2],3.16 µM (inconclusive)
COC(=O)[C@@]1(Cc2ccccc2)[C@H]2c3cc(C(=O)N4CCCC4)n(CCO)c3C[C@H]2CN1C(=O)c1ccccc1,AC50,[1]; read-out: AC50,0.00794 µM (inconclusive)
COC(=O)c1c(NC(=O)Cn2cc([N+](=O)[O-])cn2)sc2c1CCC2,AC50,[5],3.55 µM (inconclusive)
same,AC50,[1]; read-out: AC50,3.16 µM (inconclusive)
COc1ccc(-c2nc3cnc(OC)nc3n(C3CC3)c2=O)cc1,AC50,[2],0.0501 µM (inconclusive)
